pIC50: −log10 of the molar value. Several values for one entry are separate records, joined by “and”; a condition that tells them apart may be missing. Equal values may be shown once.

T1 sequence (Q02294 whole entry): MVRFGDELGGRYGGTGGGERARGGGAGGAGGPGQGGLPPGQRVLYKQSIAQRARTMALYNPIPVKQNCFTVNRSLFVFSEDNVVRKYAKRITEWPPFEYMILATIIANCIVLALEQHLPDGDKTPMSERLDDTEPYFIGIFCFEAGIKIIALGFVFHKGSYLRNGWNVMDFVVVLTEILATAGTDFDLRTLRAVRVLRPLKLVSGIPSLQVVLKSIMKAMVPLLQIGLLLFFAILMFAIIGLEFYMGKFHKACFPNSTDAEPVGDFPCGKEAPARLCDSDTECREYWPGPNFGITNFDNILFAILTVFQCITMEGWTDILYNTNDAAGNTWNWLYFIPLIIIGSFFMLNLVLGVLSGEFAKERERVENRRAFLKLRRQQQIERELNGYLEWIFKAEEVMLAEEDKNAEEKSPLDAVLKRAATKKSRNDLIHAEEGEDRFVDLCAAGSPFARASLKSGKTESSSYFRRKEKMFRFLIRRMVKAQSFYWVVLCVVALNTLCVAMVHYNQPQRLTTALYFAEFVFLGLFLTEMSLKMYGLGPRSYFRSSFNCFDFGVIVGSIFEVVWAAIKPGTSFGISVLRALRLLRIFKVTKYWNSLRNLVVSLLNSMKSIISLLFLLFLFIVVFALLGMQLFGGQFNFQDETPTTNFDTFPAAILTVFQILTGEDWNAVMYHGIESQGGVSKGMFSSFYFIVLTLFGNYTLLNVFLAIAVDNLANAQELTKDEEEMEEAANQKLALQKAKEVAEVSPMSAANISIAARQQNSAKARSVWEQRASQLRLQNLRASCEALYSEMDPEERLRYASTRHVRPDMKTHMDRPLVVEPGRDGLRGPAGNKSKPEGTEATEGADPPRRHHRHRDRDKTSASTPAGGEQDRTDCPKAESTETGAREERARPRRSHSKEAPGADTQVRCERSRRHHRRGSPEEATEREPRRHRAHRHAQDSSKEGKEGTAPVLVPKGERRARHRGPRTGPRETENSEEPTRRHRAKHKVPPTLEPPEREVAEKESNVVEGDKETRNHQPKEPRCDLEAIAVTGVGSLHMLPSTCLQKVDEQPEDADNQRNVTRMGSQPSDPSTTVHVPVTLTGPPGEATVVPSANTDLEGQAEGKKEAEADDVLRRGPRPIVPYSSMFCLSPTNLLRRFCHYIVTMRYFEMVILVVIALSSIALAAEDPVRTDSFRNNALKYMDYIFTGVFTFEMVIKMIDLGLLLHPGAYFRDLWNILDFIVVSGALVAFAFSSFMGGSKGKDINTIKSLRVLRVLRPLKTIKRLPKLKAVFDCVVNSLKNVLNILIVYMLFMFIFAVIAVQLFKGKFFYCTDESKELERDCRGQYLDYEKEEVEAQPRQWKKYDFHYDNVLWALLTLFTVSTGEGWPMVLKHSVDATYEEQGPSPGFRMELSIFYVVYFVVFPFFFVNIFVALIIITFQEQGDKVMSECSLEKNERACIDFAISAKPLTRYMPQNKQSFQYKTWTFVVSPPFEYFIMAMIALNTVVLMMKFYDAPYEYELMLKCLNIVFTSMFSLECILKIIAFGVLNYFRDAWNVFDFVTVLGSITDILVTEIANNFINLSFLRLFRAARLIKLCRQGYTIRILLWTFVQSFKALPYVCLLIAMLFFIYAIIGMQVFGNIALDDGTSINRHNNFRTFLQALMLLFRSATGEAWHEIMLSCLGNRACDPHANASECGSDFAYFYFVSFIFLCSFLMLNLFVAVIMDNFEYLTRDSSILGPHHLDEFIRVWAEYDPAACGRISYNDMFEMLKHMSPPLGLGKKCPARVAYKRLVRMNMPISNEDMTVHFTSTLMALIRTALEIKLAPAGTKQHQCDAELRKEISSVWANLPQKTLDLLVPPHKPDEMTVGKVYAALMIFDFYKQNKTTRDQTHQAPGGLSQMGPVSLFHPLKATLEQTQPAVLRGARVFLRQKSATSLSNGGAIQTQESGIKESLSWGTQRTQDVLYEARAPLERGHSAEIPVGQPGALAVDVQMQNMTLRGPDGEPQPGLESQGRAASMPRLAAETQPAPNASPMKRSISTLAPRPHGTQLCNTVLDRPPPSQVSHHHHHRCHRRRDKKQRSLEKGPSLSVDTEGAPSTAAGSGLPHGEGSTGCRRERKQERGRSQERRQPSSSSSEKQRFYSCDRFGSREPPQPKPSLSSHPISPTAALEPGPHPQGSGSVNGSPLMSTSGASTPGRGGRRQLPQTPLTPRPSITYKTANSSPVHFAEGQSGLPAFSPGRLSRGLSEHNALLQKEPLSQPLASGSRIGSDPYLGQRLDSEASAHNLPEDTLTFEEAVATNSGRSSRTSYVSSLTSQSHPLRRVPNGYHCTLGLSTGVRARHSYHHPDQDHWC
T1 sequence (P54290 25-944 partner limits assumed): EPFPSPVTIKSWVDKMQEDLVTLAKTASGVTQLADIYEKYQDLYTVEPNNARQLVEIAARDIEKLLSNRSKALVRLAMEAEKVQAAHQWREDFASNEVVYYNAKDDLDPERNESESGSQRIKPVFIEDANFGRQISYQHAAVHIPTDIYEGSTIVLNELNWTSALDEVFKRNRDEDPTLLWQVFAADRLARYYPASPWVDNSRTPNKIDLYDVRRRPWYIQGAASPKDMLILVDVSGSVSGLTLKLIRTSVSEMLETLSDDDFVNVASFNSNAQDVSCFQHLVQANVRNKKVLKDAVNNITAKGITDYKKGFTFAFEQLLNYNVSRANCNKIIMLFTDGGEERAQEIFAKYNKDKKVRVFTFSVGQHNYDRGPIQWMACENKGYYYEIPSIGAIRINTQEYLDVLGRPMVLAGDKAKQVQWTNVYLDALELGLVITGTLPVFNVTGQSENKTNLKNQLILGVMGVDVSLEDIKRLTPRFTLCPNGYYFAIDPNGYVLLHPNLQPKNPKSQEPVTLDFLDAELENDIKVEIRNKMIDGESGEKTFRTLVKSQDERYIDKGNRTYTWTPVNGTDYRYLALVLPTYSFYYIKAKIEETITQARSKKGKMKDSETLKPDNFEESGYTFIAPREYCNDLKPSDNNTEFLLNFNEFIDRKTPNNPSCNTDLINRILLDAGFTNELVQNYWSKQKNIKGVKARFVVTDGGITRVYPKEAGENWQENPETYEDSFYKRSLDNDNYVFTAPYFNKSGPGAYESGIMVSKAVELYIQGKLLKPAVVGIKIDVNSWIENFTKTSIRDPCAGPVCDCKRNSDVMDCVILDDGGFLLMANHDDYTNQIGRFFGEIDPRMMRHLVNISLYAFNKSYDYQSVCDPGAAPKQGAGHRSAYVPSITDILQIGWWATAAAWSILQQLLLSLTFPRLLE
T1 sequence (P54290 945-1091 partner limits assumed): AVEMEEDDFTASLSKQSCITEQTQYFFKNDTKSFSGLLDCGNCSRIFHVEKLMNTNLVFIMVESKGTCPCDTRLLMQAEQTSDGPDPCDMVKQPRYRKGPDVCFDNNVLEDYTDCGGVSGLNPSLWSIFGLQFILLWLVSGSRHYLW
T1 sequence (P54283 whole entry partner): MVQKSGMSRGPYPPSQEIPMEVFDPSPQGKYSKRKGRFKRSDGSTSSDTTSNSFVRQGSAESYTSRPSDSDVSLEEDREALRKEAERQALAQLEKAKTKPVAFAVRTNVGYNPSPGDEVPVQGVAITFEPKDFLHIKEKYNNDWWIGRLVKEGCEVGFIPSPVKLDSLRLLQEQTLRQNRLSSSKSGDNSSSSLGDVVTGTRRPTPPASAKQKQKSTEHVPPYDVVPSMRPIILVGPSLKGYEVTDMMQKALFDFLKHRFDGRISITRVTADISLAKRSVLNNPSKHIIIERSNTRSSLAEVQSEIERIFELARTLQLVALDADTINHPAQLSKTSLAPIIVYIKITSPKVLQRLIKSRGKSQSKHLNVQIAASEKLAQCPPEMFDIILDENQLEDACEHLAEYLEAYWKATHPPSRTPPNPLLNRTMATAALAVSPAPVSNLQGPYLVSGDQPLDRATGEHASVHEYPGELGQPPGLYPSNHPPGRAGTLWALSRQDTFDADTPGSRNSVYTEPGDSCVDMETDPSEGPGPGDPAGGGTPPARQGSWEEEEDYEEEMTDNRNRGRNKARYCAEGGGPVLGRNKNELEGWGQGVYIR

The assay addresses T1, rat α1B+α2b+β1b channels (Rattus norvegicus, UniProt Q02294).
T1 construct: expressed in transfected cells
In words: N-type calcium channel blocking activity, whole cell patch recordings. Type of assay: cell-based. As to conditions: N-type calcium channels expressed in human embryonic kidney cells; 5 mM barium as charge carrier. The procedure: Antagonist activity was measured using whole cell patch recordings on human embryonic kidney cells either stably or transiently expressing rat α1B+α2b+β1b channels with 5 mM barium as a charge carrier.
For transient expression, host cells, such as human embryonic kidney cells, HEK 293 (ATCC# CRL 1573) are grown in standard DMEM medium supplemented with 2 mM glutamine and 10% fetal bovine serum. HEK 293 cells are transfected by a standard calcium-phosphate-DNA coprecipitation method using the rat α1B+β1b+α2δ N-type calcium channel subunits in a vertebrate expression vector (for example, see Current Protocols in Molecular Biology).
After an incubation period of from 24 to 72 hrs the culture medium is removed and replaced with external recording solution (see below). Whole cell patch clamp experiments are performed using an Axopatch 200B amplifier (Axon Instruments, Burlingame, Calif.) linked to an IBM compatible personal computer equipped with pCLAMP software. Borosilicate glass patch pipettes (Sutter Instrument Co., Novato, Calif.) were polished (Microforge, Narishige, Japan) to a resistance of about 4 MΩ when filled with cesium methanesulfonate internal solution (composition in MM: 109 CsCH3SO4, 4 MgCl2, 9 EGTA, 9 HEPES, pH 7.2). Cells were bathed in 5 mM Ba^++ (in mM: 5 BaCl2, 1 MgCl2, 10 HEPES, 40 tetraethylammonium chloride, 10 glucose, 87.5 CsCl pH 7.2). Current data shown were elicited by a train of 100 ms test pulses at 0.066 Hz from −100 mV and/or −80 mV to various potentials (min. −20 mV, max. +30 mV). Drugs were perfused directly into the vicinity of the cells using a microperfusion system.
Normalized dose-response curves were fit (Sigmaplot 4.0, SPSS Inc., Chicago, Ill.) by the Hill equation to determine IC50 values. Steady-state inactivation curves were plotted as the normalized test pulse amplitude following 5 s inactivating prepulses at +10 mV increments. Inactivation curves were fit (Sigmaplot 4.0) with the Boltzman equation, Ipeak (normalized)=1/(1+exp((V-Vh)z/25.6)), where V and Vh are the conditioning and half inactivation potentials, respectively, and z is the slope factor. […]
For `O=C(C(C1CCCCC1)C1CCCCC1)N1CCN(Cc2ccccc2)CC1` [Ya=c-hex, c-hex; X^1=CHCO; X^2=CH2; Ar=φ], the negative logarithm of the IC50 (pIC50) (in general, the negative decadic logarithm of the IC50, by convention in mol/L) was 4.85.

As for `C(=Cc1ccccc1)CN1CCN(CCCCCC(c2ccccc2)C2CCCCC2)CC1` (stereo not drawn), the negative-log IC50 (pIC50) is 5.23. Turning to `O=C(C(C1CCCCC1)C1CCCCC1)N1CCN(CC=Cc2ccccc2)CC1`, the negative logarithm of the IC50 (pIC50) is 5.23. Regarding `C(=Cc1ccccc1)CN1CCN(CC(C2CCCCC2)C2CCCCC2)CC1`, the pIC50 was 4.99.

In the case of `C(=Cc1ccccc1)CN1CCN(CC(c2ccccc2)C2CCCCC2)CC1` (stereo not drawn), the pIC50 was 4.97 and ~5.30. As for `O=C(CCCCCC(c1ccccc1)C1CCCCC1)N1CCN(CC=Cc2ccccc2)CC1` (stereo not drawn), the pIC50 was 4.91. For the compound `C(=Cc1ccccc1)CN1CCN(CCCCCCC(c2ccccc2)C2CCCCC2)CC1` (stereo not drawn), the negative logarithm of the IC50 (pIC50) is 5.49. As to `O=C(C(c1ccccc1)C1CCCCC1)N1CCN(Cc2ccccc2)CC1` (stereo not drawn) [Ya=φ, c-hex; X^1=CHCO; X^2=CH2; Ar=φ], the pIC50 was roughly 4.70. In the case of `O=C(C(c1ccccc1)C1CCCCC1)N1CCN(CC=Cc2ccccc2)CC1` (stereo not drawn) it was roughly 5.30.
